pEC50: −log10 of the molar value.
These molecules were tested against T1, humanen mpl-Rezeptor (Homo sapiens, UniProt P40238) (assay: TPO-dependent cell proliferation test with BaF3 cells transfected with the human mpl receptor (BaF3/mpl), WST readout). Settings: BaF3-mpl Rezeptor Proliferationstest; 48 bis 72 h; half-maximal stimulation after background subtraction.
T1 sequence (P40238 26-635): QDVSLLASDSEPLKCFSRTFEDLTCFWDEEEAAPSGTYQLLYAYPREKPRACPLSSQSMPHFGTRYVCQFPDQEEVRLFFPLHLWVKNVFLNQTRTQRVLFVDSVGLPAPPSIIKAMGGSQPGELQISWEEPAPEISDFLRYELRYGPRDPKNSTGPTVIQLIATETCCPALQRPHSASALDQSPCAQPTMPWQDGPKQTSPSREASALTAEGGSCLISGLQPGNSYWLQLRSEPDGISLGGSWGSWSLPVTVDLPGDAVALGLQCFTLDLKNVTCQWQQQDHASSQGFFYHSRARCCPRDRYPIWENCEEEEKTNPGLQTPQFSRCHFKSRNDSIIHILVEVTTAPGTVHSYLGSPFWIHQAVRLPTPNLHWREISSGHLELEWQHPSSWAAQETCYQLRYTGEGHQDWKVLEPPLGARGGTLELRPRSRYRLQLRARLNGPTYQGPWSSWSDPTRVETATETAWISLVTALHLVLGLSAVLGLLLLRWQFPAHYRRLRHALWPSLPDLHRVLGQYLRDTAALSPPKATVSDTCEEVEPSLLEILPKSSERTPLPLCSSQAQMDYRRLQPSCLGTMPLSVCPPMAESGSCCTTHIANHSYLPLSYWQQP
Format: cell-based
Source text: Die Bioaktivität der erfindungsgemäßen Verbindungen kann mittels eines TPO-abhängigen Zellproliferationstests gemessen werden. Die Substanzen dürfen keine Wirkung auf die nicht transfektierten parenteralen BaF3 Zellen ausüben. Murine IL-3-abhängig wachsende BaF3 Zellen wurden mit dem humanen mpl-Rezeptor transfektiert. In Abwesenheit von IL-3 ist die Proliferation und das Überleben dieser Zellen abhängig von TPO. Die parentale, untransfektierte Zell-Linie reagiert nicht auf humanes TPO, proliferiert aber in Gegenwart von IL-3. Die Bestimmung der Zellproliferation erfolgt nach literaturbekannten Verfahren (WO 96/40750). Die chemischen Substanz-Bibliotheken wurden in Bioassays mit den beiden obigen Zell-Linien gescreent. Die Zellen wurden in Gegenwart von IL-3 (BaF3 parental) bzw. TPO (BaF3-mpl-Rezeptor tragend = BaF3/mpl) in RPMI 1640 Medium in Gegenwart von 10 % FCS (fetales Kälberserum) gezüchtet. Für den Test wurden die Zellen zweimal in IL-3 bzw. TPO freiem Medium gewaschen und im Medium, das kein TPO bzw. IL-3 enthielt, resuspendiert. Diese Zellsuspension wurde dann zur Vertiefung einer 96 Tüpfelplatte (Costar), die TPO oder IL-3 und/oder Verbindung enthielt, in einer Menge von 10^4 Zellen/Vertiefung zugegeben. Die Zellen wurden dann für 48 bis 72 h bei 37°C in einem CO2 Inkubator inkubiert. Die proliferative Aktivität wurde bestimmt durch die Zugabe von WST (WST: Zell-Proliferations-Reagens; BM-Katalog-Nr. 1644807 "Tetrazolium-Salz").WST wird von proliferierenden Zellen zu Formazan umgewandelt und diese Umwandlung, als Maß für die Proliferation wird mittels OD (OD: optical density) bei 570 nm in einem ELISA Platten Meßgerät bestimmt.
Zur Ermittlung der halbmaximalen Stimulation wurde vom maximal erzielten Signal der Background (Zellen ohne Substanz) abgezogen und dieser Wert durch 2 geteilt. Dieser Wert plus dem Background-Wert wurden dann zur Bestimmung der EC50 (halbmaximale excitatorv concentration; Substratkonzentration, bei der die Substanz ihre halbmaximale Wirksamkeit im BaF3-mpl Rezeptor Proliferationstest ausübt) herangezogen. In Tabelle 3 sind die EC50-Werte bespielhaft für drei untersuchte Verbindungen dargestellt.
Die untersuchten Verbindungen stimulieren die Proliferation von mit mpl-Rezepror transfektierten BaF3 Zellen in einer Dosis abhängigen Weise. Die Proliferation von parenteralen Zell-Linien wird nicht stimuliert. Auch in Abwesenheit von TPO stimulieren die Verbindungen die Proliferation der BaF3/mpl-Zellen in wochenlanger Kultur. Tabelle 3
Work on `O=[N+]([O-])c1ccc2c(N=Nc3ccc4ccccc4c3O)c(O)cc(S(=O)(=O)O)c2c1` [Beispiel 9] yielded a pEC50 of 5.86.
For `O=[N+]([O-])c1ccc2c(N=Nc3c(O)ccc4ccccc34)c(O)cc(S(=O)(=O)O)c2c1` [Beispiel 12], the pEC50 was 5.80.
Molecule `Cc1ccc(O)c(N=Nc2c(O)cc(S(=O)(=O)O)c3ccccc23)c1` [Beispiel 13] has a pEC50 of 5.25.
In the case of `Cc1ccc(NC(=O)c2cc3ccccc3c(N=Nc3cc(S(=O)(=O)O)ccc3O)c2O)c(C)c1` [Beispiel 15], the pEC50 was 5.35.
In the case of `O=S(=O)(O)c1cccc2c(O)c(N=Nc3ccc(C(F)(F)F)cc3O)ccc12` [Beispiel 20, 5-Hydroxy-6-(2-hydroxy-4-trifluormethyl-phenylazo)naphthalin-1-sulfonsäure], the pEC50 was 7.14.

Source: patent publication EP1104674A1, “O,o'-dihydroxy azo dyes as medicinal components with TPO-agonistic or -synergetic activity” (Curacyte AG, priority 1999, dated 2001)
